Measured values taken from patent US20230391768A2, “IMIDAZOPYRIDINE DERIVATIVES AND AZA-IMIDAZOPYRIDINE DERIVATIVES AS JANUS KINASE 2 INHIBITORS AND USES THEREOF” (Dana-Farber Cancer Institute, Inc., priority 2018, published 2023).

Tests used:
Assay in all cases: KINOMEscan
Assay type in all cases: binding
Settings in all cases: read-out: percent of control
[1] = target: CSF1R-autoinhibited (Homo sapiens (Human), UniProt P07333)
Description: (§1) In vitro profiling of Compound I-2 (1 μM) was performed using the DiscoveRx KINOMEscan® platform.

[2] = target: TSSK1B (Homo sapiens (Human), UniProt Q9BXA7)
Description: as §1

[3] = target: PIK3CD (Homo sapiens (Human), UniProt O00329)
Description: as §1

[4] = target: ABL1(H396P)-nonphosphorylated (Homo sapiens (Human), UniProt P00519, H396P)
Description: as §1

[5] = target: CDKL5 (Homo sapiens (Human), UniProt O76039)
Description: as §1

[6] = target: EPHB 1 (Homo sapiens (Human), UniProt P54762)
Description: as §1

[7] = target: EPHA6 (Homo sapiens (Human), UniProt Q9UF33)
Description: as §1

[8] = target: YSK1 (Homo sapiens (Human), UniProt O00506)
Description: as §1

[9] = target: p38-beta (Homo sapiens (Human), UniProt Q15759)
Description: as §1

[10] = target: ABL1(Y253F)-phosphorylated (Homo sapiens (Human), UniProt P00519, Y253F)
Description: as §1

[11] = target: TIE1 (Homo sapiens (Human), UniProt P35590)
Description: as §1

[12] = target: FLT4 (Homo sapiens (Human), UniProt P35916)
Description: as §1

[13] = target: CAMK2D (Homo sapiens (Human), UniProt Q13557)
Description: as §1

[14] = target: FAK (Homo sapiens (Human), UniProt Q05397)
Description: as §1

[15] = target: TESK1 (Homo sapiens (Human), UniProt Q15569)
Description: as §1

[16] = target: HASPIN (Homo sapiens (Human), UniProt Q8TF76)
Description: as §1

[17] = target: MEK2 (Homo sapiens (Human), UniProt P36507)
Description: as §1

[18] = target: MLCK (Homo sapiens (Human), UniProt Q32MK0)
Description: as §1

[19] = target: BMX (Homo sapiens (Human), UniProt P51813)
Description: as §1

[20] = target: TRKB (Homo sapiens (Human), UniProt Q16620)
Description: as §1

[21] = target: HIPK3 (Homo sapiens (Human), UniProt Q9H422)
Description: as §1

[22] = target: CIT (Homo sapiens (Human), UniProt O14578)
Description: as §1

[23] = target: CDK3 (Homo sapiens (Human), UniProt Q00526)
Description: as §1

[24] = target: MRCKB (Homo sapiens (Human), UniProt Q9Y5S2)
Description: as §1

[25] = target: TAK1 (Homo sapiens (Human), UniProt O43318)
Description: as §1

[26] = target: RIOK2 (Homo sapiens (Human), UniProt Q9BVS4)
Description: as §1

[27] = target: ADCK4 (Homo sapiens (Human), UniProt Q96D53)
Description: as §1

[28] = target: GAK (Homo sapiens (Human), UniProt O14976)
Description: as §1

[29] = target: ULK3 (Homo sapiens (Human), UniProt Q6PHR2)
Description: as §1

[30] = target: NEK7 (Homo sapiens (Human), UniProt Q8TDX7)
Description: as §1

[31] = target: FLT3 (D835V) (Homo sapiens (Human), UniProt P36888, D835V)
Description: as §1

[32] = target: MET (Homo sapiens (Human), UniProt P08581)
Description: as §1

[33] = target: NEK6 (Homo sapiens (Human), UniProt Q9HC98)
Description: as §1

[34] = target: EGFR(L858R) (Homo sapiens (Human), UniProt P00533, L858R)
Description: as §1

[35] = target: WNK2 (Homo sapiens (Human), UniProt Q9Y3S1)
Description: as §1

[36] = target: KIT(A829P) (Homo sapiens (Human), UniProt P10721, A829P)
Description: as §1

[37] = target: MAP3K15 (Homo sapiens (Human), UniProt Q6ZN16)
Description: as §1

[38] = target: PRKX (Homo sapiens (Human), UniProt P51817)
Description: as §1

[39] = target: NDR2 (Homo sapiens (Human), UniProt Q9Y2H1)
Description: as §1

Sequence of NEK6 (Q9HC98 whole entry): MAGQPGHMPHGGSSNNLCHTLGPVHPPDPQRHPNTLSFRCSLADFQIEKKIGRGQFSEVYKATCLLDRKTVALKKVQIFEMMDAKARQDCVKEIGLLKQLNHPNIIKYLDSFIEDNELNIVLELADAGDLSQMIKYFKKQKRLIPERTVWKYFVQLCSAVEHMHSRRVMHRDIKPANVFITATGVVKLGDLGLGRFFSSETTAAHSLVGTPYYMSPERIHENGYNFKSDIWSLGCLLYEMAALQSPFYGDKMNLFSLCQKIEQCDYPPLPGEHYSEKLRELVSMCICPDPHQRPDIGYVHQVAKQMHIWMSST
Sequence of MAP3K15 (Q6ZN16 whole entry): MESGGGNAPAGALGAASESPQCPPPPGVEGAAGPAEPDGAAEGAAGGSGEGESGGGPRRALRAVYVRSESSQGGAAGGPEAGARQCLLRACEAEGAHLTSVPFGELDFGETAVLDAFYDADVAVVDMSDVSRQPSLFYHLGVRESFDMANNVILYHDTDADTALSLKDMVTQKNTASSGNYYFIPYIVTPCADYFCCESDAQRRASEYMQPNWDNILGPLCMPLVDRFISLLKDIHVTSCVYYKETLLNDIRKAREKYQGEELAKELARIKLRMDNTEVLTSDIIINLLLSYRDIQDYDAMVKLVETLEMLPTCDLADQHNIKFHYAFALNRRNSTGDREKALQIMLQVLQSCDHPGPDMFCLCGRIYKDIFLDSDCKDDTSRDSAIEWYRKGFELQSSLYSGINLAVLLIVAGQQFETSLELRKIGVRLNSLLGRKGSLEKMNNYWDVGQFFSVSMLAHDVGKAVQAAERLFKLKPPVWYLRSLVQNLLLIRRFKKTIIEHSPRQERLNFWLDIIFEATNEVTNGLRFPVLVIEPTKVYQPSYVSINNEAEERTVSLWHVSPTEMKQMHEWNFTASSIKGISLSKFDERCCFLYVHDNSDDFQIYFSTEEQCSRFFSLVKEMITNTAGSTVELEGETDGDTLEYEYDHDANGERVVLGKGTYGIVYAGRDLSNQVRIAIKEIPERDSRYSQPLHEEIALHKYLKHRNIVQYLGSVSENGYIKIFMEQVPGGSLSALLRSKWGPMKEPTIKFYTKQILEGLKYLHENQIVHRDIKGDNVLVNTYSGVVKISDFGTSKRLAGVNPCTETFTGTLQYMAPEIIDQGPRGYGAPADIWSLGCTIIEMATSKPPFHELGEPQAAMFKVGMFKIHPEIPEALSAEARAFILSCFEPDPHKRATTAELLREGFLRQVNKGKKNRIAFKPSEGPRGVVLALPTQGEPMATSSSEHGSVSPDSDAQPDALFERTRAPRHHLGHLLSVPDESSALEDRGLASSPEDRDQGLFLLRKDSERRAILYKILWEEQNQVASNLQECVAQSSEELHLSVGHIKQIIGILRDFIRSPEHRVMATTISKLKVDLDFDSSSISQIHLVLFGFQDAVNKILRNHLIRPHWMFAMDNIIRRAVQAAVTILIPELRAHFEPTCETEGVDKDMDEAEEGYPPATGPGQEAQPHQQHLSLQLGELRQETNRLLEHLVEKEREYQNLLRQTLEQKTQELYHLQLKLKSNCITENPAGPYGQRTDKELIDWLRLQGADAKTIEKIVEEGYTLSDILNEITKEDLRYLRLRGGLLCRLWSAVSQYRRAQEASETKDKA
Sequence of MEK2 (P36507 whole entry): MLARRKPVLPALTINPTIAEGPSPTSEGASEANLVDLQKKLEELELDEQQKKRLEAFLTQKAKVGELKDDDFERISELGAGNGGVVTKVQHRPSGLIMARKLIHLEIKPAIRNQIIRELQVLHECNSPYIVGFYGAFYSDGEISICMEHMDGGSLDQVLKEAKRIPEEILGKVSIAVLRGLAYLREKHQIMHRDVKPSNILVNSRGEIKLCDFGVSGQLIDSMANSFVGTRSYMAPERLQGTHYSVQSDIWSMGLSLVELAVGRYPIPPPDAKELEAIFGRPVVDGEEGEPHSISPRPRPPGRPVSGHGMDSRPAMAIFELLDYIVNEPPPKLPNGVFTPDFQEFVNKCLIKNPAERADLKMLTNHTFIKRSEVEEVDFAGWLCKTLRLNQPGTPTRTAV
Sequence of TSSK1B (Q9BXA7 whole entry): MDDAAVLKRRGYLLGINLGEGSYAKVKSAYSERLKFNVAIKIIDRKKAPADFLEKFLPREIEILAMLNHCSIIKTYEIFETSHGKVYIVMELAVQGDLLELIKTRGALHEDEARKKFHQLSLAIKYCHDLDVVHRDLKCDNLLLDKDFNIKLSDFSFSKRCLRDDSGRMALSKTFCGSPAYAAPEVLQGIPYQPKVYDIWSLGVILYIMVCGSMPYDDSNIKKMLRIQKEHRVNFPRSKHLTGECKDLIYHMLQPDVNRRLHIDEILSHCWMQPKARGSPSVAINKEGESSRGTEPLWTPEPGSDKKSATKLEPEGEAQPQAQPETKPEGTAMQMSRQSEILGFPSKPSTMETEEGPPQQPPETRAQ
Sequence of EGFR(L858R) (P00533 25-1210 L858R): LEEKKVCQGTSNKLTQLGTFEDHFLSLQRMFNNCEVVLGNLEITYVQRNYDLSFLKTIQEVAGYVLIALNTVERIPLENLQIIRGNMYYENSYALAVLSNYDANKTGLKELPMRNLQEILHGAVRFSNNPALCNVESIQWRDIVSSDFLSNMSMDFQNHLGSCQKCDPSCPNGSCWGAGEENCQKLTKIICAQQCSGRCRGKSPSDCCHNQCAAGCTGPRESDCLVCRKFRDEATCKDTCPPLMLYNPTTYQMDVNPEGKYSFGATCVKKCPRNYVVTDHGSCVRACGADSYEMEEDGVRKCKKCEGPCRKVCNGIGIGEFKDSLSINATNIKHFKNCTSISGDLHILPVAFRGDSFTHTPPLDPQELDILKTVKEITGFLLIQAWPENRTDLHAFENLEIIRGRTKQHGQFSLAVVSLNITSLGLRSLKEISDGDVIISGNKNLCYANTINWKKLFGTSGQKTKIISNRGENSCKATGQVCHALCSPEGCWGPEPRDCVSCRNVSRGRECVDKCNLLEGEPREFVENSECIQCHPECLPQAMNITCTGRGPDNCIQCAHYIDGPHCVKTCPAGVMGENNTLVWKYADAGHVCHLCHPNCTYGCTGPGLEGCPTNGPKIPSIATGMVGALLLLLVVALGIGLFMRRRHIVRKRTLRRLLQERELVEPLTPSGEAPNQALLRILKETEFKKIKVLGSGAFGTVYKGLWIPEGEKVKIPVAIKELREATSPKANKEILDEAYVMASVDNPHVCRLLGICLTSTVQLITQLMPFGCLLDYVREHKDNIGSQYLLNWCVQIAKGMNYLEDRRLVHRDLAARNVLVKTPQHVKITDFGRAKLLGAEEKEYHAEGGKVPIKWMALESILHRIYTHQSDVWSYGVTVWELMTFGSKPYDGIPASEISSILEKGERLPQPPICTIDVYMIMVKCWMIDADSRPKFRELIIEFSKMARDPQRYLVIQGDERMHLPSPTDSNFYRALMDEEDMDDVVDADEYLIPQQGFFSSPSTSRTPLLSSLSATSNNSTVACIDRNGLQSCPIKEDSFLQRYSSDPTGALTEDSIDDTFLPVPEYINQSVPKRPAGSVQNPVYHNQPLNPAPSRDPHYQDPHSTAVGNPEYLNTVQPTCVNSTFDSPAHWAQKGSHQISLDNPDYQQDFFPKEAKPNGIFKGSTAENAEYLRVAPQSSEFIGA
Sequence of p38-beta (Q15759 whole entry): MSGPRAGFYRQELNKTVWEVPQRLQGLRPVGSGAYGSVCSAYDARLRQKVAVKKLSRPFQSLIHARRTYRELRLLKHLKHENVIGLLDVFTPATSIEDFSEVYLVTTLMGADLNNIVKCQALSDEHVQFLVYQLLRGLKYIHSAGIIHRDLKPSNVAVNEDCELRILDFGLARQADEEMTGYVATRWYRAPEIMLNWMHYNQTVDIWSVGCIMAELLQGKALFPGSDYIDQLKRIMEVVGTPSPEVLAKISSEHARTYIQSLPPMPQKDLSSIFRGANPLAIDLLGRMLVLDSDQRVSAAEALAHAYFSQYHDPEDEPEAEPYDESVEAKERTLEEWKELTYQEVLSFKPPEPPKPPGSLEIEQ
Sequence of CDK3 (Q00526 whole entry): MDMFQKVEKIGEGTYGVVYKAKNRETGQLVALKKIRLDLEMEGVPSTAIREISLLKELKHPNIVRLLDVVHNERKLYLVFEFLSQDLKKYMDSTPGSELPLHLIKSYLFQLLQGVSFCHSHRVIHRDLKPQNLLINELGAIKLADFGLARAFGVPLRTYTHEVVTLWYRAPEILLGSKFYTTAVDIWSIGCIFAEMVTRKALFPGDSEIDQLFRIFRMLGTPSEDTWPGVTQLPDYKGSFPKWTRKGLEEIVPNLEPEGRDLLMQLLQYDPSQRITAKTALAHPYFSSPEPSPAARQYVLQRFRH
Sequence of YSK1 (O00506 whole entry): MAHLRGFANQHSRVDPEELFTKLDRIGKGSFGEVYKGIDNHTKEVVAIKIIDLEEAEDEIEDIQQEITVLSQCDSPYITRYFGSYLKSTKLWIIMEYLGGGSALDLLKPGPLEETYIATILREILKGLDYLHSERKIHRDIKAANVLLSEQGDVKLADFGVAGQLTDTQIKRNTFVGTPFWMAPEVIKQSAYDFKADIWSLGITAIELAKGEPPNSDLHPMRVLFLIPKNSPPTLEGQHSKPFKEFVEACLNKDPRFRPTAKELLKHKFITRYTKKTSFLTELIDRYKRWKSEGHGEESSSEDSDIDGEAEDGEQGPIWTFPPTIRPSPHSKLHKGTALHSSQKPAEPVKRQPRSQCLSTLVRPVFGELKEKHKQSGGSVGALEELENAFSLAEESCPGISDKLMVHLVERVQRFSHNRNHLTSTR
Sequence of NEK7 (Q8TDX7 whole entry): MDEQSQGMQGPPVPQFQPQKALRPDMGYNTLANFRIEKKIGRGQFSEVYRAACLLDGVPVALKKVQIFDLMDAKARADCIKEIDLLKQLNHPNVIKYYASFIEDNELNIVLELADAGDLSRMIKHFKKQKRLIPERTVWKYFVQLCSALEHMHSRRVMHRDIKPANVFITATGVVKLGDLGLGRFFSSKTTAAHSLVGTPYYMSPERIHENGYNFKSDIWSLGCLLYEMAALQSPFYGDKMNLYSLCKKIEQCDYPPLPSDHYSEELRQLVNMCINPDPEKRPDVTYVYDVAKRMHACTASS

SMILES	remaining binding at 1 µM [1]	remaining binding at 1 µM [2]	remaining binding at 1 µM [3]	remaining binding at 1 µM [4]	remaining binding at 1 µM [5]	remaining binding at 1 µM [6]	remaining binding at 1 µM [7]	remaining binding at 1 µM [8]	remaining binding at 1 µM [9]	remaining binding at 1 µM [10]	remaining binding at 1 µM [11]	remaining binding at 1 µM [12]	remaining binding at 1 µM [13]	remaining binding at 1 µM [14]	remaining binding at 1 µM [15]	remaining binding at 1 µM [16]	remaining binding at 1 µM [17]	remaining binding at 1 µM [18]	remaining binding at 1 µM [19]	remaining binding at 1 µM [20]	further results
CCN1CCN(Cc2cc(NC(=O)c3ccc(C)c(-c4ccc5nc(NC(=O)C6CC6)cn5c4)c3)cc(C(F)(F)F)c2)CC1 [Compound I-6, 3-(2-(cyclopropanecarboxamido)imidazo[1,2-a]pyridin-6-yl)-N-(3-((4-ethylpiperazin-1-yl)methyl)-5-(trifluoromethyl)phenyl)-4-methylbenzamide]	49%	76%	69%	0%	100%	0.25%	0.75%	100%	62%	0.1%	4%	0.3%	92%	7.9%	97%	64%	95%	85%	42%	0%	remaining binding at 1 µM [21]: 98%; remaining binding at 1 µM [22]: 0.35%; remaining binding at 1 µM [23]: 40%; remaining binding at 1 µM [24]: 100%; remaining binding at 1 µM [25]: 2.7%; remaining binding at 1 µM [26]: 94%; remaining binding at 1 µM [27]: 91%; remaining binding at 1 µM [28]: 93%; remaining binding at 1 µM [29]: 100%; remaining binding at 1 µM [30]: 91%; remaining binding at 1 µM [31]: 7.7%; remaining binding at 1 µM [32]: 14%; remaining binding at 1 µM [33]: 100%; remaining binding at 1 µM [34]: 71%; remaining binding at 1 µM [35]: 57%; remaining binding at 1 µM [36]: 12%; remaining binding at 1 µM [37]: 95%; remaining binding at 1 µM [38]: 100%; remaining binding at 1 µM [39]: 59%
CCN1CCN(Cc2cc(NC(=O)c3ccc(C)c(-c4ccc5nc(NC(=O)C6CC6)cn5n4)c3)cc(C(F)(F)F)c2)CC1 [Compound I-2, 3-(2-(cyclopropanecarboxamido)imidazo[1,2-b]pyridazin-6-yl)-N-(3-((4-ethylpiperazin-1-yl)methyl)-5-(trifluoromethyl)phenyl)-4-methylbenzamide]	25%	96%	100%	0%	95%	0.65%	5.2%	61%	60%	0%	0%	0.05%	100%	1.9%	100%	87%	95%	93%	65%	0.05%	remaining binding at 1 µM [21]: 56%; remaining binding at 1 µM [22]: 0.1%; remaining binding at 1 µM [23]: 5.7%; remaining binding at 1 µM [24]: 100%; remaining binding at 1 µM [25]: 1.1%; remaining binding at 1 µM [26]: 100%; remaining binding at 1 µM [27]: 75%; remaining binding at 1 µM [28]: 99%; remaining binding at 1 µM [29]: 97%; remaining binding at 1 µM [30]: 99%; remaining binding at 1 µM [31]: 5.3%; remaining binding at 1 µM [32]: 9.7%; remaining binding at 1 µM [33]: 100%; remaining binding at 1 µM [34]: 76%; remaining binding at 1 µM [35]: 72%; remaining binding at 1 µM [36]: 0%; remaining binding at 1 µM [37]: 55%; remaining binding at 1 µM [38]: 100%; remaining binding at 1 µM [39]: 98%
